Test results taken from PMC10150354, “Linearization of the Brevicidine and Laterocidine Lipopeptides Yields Analogues That Retain Full Antibacterial Activity” (Journal of Medicinal Chemistry, 2023).
Converted amounts (≈) assume the structure as drawn. Where a SMILES comes first, the peptide text is derived from it. [ ]: non-standard residue; d: D form. The star is where a group is joined. ξ: configuration not given here. Octanoyl(7-Me) = CC(C)CCCCCC(=O)*; Hexanoyl(4ξ-Me) = CCC(C)CCC(=O)*; dOrn = NCCC[C@@H](N)C(=O)O; Orn = NCCC[C@H](N)C(=O)O; Dap = NC[C@H](N)C(=O)O

Key:
[1] = test system: S. aureus USA300; type: cell-based, Staphylococcus aureus; conditions: microbroth dilution per CLSI, MHB, 18 h at 37 °C, visual inspection, three technical replicates
Method: (§1) Linear laterocidine (LL-OH, 4) and linear brevicidine (LB-OH, 5) were first synthesized by Fmoc SPPS, starting from 2-chlorotrityl (2-CT) chloride resin. The antibacterial activity of these peptides was then compared to brevicidine (1) and laterocidine (2) using minimum inhibitory concentration (MIC)/microbroth dilution assays (Table 1). The MICs of all peptides were determined against a panel of Gram-negative and Gram-positive ESKAPE pathogens. Additionally, a strain of E. coli carrying the mcr-1 gene was included in the panel. The mcr-1 gene is a transferrable plasmid that confers resistance against colistin, a last-resort antibiotic for Gram-negative infections, by reducing the overall negative charge of lipopolysaccharide (LPS) through modification of lipid A with phosphoethanolamine. The propensity for cationic antibiotics to bind to the cell membrane is therefore reduced. This gene has been observed in more than 27 bacterial species over six continents.[26] The spread of the mcr-1 gene could render colistin ineffectual; therefore, novel antibacterials are urgently required to overcome this form of resistance.
(§2) All minimum inhibitory concentrations (MICs) were determined according to Clinical and Laboratory Standards Institute (CLSI) guidelines. Blood agar plates were inoculated with glycerol stocks of E. coli ATCC 25922, K. pneumoniae ATCC 13883, A. baumannii ATCC 17961, P. aeruginosa PAO1, and S. aureus USA300. The inoculated agar plates were then incubated for 16 h at 37 °C. Individually grown colonies were subsequently used to inoculate 5 mL aliquots of TSB that were then incubated at 37 °C with shaking at 220 rpm. E. coli 25922 MCR-1 glycerol stock was used to inoculate 5 mL of TSB supplemented with kanamycin that was then incubated for 16 h at 37 °C with shaking at 220 rpm. The next day the culture was diluted 100-fold in TSB supplemented with kanamycin and incubated at 37 °C with shaking at 220 rpm. In parallel, the lipopeptide antibiotics DMSO stocks to be assessed were serially diluted with MHB in polypropylene 96-well plates (50 μL in each well). Colistin sulfate stocks were dissolved in water before being diluted with MHB. Aliquots of the inoculated TSB were incubated until an OD600 of around 0.5 was reached. The bacterial suspensions were then diluted with MHB (2 × 10^5 CFU/mL) and added to the microplates containing the test compounds (50 μL to each well). The well plates were sealed with an adhesive membrane and after 18 h of incubation at 37 °C with shaking at 600 rpm, the wells were visually inspected for bacterial growth. MIC values reported are based on three technical replicates and defined as the lowest concentration of the compound that prevented visible growth of bacteria.

[2] = test system: E. coli ATCC 25922; type: cell-based, Escherichia coli; conditions: for MIC (µg/mL) against E. coli (ATCC 25922): (Supplement 2); for Antibacterial activity (MIC) E. coli ATCC 25922: microbroth dilution per CLSI, MHB, 18 h at 37 °C, visual inspection, three technical replicates
Method: as §1, §2

[3] = test system: E. coli (MCR-1); type: cell-based, Escherichia coli; conditions: microbroth dilution per CLSI, MHB, 18 h at 37 °C, visual inspection, three technical replicates, E. coli 25922 carrying mcr-1
Method: as §1, §2

[4] = test system: A. baumannii ATCC 17961; type: cell-based, Acinetobacter baumannii; conditions: microbroth dilution per CLSI, MHB, 18 h at 37 °C, visual inspection, three technical replicates
Method: as §1, §2

[5] = test system: P. aeruginosa PAO1; type: cell-based, Pseudomonas aeruginosa; conditions: microbroth dilution per CLSI, MHB, 18 h at 37 °C, visual inspection, three technical replicates
Method: as §1, §2

[6] = test system: K. pneumoniae ATCC 13883; type: cell-based, Klebsiella pneumoniae; conditions: microbroth dilution per CLSI, MHB, 18 h at 37 °C, visual inspection, three technical replicates
Method: as §1, §2

Compound | Antibacterial activity (MIC) S. aureus USA300 [1] [µg/mL] | MIC (µg/mL) against E. coli (ATCC 25922) [2] [µg/mL] | Antibacterial activity (MIC) E. coli ATCC 25922 [2] [µg/mL] | Antibacterial activity (MIC) E. coli (MCR-1) [3] [µg/mL] | Antibacterial activity (MIC) A. baumannii ATCC 17961 [4] [µg/mL] | Antibacterial activity (MIC) P. aeruginosa PAO1 [5] [µg/mL] | Antibacterial activity (MIC) K. pneumoniae ATCC 13883 [6] [µg/mL]
CC[C@H](C)[C@H](NC(=O)[C@H](Cc1c[nH]c2ccccc12)NC(=O)[C@H](Cc1c[nH]c2ccccc12)NC(=O)[C@@H](CCCN)NC(=O)CNC(=O)[C@H](CCCN)NC(=O)[C@@H](CCCN)NC(=O)[C@@H](Cc1c[nH]c2ccccc12)NC(=O)[C@@H](Cc1ccc(O)cc1)NC(=O)[C@@H](CO)NC(=O)CCCCCC(C)C)C(=O)N[C@@H](CC(N)=O)C(=O)NCC(=O)NCC(N)=O [LL(Trp9)-NH2 (45)] ({Octanoyl(7-Me)}-[dS][dY][dW][dOrn][Orn]G[dOrn]WWINGG-NH2) | >32 | 4 (≈ 2.34 µM) | 4 | 4 | 4 | 16 | 4
CC[C@H](C)[C@H](NC(=O)[C@H](Cc1ccccc1)NC(=O)[C@H](Cc1c[nH]c2ccccc12)NC(=O)[C@@H](CCCN)NC(=O)CNC(=O)[C@H](CCCN)NC(=O)[C@@H](CCCN)NC(=O)[C@@H](Cc1c[nH]c2ccccc12)NC(=O)[C@@H](Cc1ccc(O)cc1)NC(=O)[C@@H](CO)NC(=O)CCCCCC(C)C)C(=O)N[C@@H](CC(N)=O)C(=O)NCC(=O)NCC(N)=O [LL(Phe9)-NH2 (43)] ({Octanoyl(7-Me)}-[dS][dY][dW][dOrn][Orn]G[dOrn]WFINGG-NH2) | >32 | 4 (≈ 2.4 µM) | 4 | 4 | 4 | 8 | 8
CCC(C)CCC(=O)N[C@H](CC(N)=O)C(=O)N[C@H](Cc1ccc(O)cc1)C(=O)N[C@H](Cc1c[nH]c2ccccc12)C(=O)N[C@H](CCCN)C(=O)N[C@@H](CCCN)C(=O)NCC(=O)N[C@H](CCCN)C(=O)N[C@@H](Cc1c[nH]c2ccccc12)C(=O)N[C@@H](Cc1c[nH]c2ccccc12)C(=O)N[C@H](C(=O)NCC(N)=O)[C@@H](C)CC (stereo partly shown) [Δ12LB (Trp9)-NH2 (56)] ({Hexanoyl(4ξ-Me)}-[dN][dY][dW][dOrn][Orn]G[dOrn]WWIG-NH2) | 16 | 4 (≈ 2.61 µM) | 4 | 4 | 4 | 8 | 8
CC[C@H](C)[C@H](NC(=O)[C@H](CCC(N)=O)NC(=O)[C@H](Cc1c[nH]c2ccccc12)NC(=O)[C@@H](CCCN)NC(=O)CNC(=O)[C@H](CCCN)NC(=O)[C@@H](CCCN)NC(=O)[C@@H](Cc1c[nH]c2ccccc12)NC(=O)[C@@H](Cc1ccc(O)cc1)NC(=O)[C@@H](CO)NC(=O)CCCCCC(C)C)C(=O)N[C@@H](CC(N)=O)C(=O)NCC(=O)NCC(N)=O [LL(Gln9)-NH2 (48)] ({Octanoyl(7-Me)}-[dS][dY][dW][dOrn][Orn]G[dOrn]WQINGG-NH2) | >32 | 4 (≈ 2.43 µM) | 4 | 8 | 8 | 4 | 4
CC[C@H](C)[C@H](NC(=O)[C@H](CN)NC(=O)[C@H](Cc1c[nH]c2ccccc12)NC(=O)[C@@H](CCCN)NC(=O)CNC(=O)[C@H](CCCN)NC(=O)[C@@H](CCCN)NC(=O)[C@@H](Cc1c[nH]c2ccccc12)NC(=O)[C@@H](Cc1ccc(O)cc1)NC(=O)[C@@H](CO)NC(=O)CCCCCC(C)C)C(=O)N[C@@H](CC(N)=O)C(=O)NCC(=O)NCC(N)=O [LL(Dap9)-NH2 (52)] ({Octanoyl(7-Me)}-[dS][dY][dW][dOrn][Orn]G[dOrn]W[Dap]INGG-NH2) | >32 | 8 (≈ 4.98 µM) | 8 | 8 | 16 | – | 32
